Experimental data reported in patent publication US6914057B1, “Inhibitor of cataract formation” (The Research Foundation of State University of New York, priority 1998, dated 2005).

Assays:
[1] = rat; oral dose of 15 mg/kg; cited from earlier work
[2] = test system: Type II ZDF/GMI diabetic rats; experiment: Development of cataracts in Type II ZDF/GMI diabetic rats treated with tetracycline analogues; assay type: in vivo, rat; settings: for percentage of Type II ZDF/GMI diabetic rats that developed cataracts: FIG. 1, treated diabetic rats, oral dose of 15 mg/kg
Text: Diabetics develop posterior subcapsular cataracts, characterized by a central opacity in the nucleus and cortex. […] In the current study, CMT-8 administration to the Type II diabetic rats reduced the incidence of cataract development by […] at five months. In fact, this therapeutic effect may have been underestimated since it was an unexpected finding and, therefore, was not documented at the earlier time points. The mechanisms by which Type II (and Type I) diabetes causes the development of these cataracts is not yet understood.
Specifically, approximately 60% of untreated Type II ZDF/GMI diabetic rats developed cataracts whereas approximately 42% of Type II ZDF/GMI diabetic rats treated with CMT-8 developed cataracts.
In particular, approximately 60% of Type II ZDF/GMI diabetic rats treated with doxycycline developed cataracts and approximately 70% of Type II ZDF/GMI diabetic rats treated with CMT-3 developed cataracts.
It is believed that the lack of efficacy for doxycycline and CMT-3 was due to the serum concentration achieved. […] The peak serum concentration for doxycycline was determined to be 0.9 μg/ml and the peak serum concentration for CMT-3 was determined to be 4.6 μg/ml. The peak serum concentration, though, for CMT-8 was determined to be 15 μg/ml. Liu et al., The Lipophilicity and Pharmacokdnetics of Different Chemically-Modified Tetracyclines (CMTs) In Vivo, Current Medicinal Chemistry, submitted for publication in September 1999. Clearly, administration of higher oral doses of CMT-3 and doxycycline would be needed to achieve serum concentrations similar to CMT-8.
FIGS. 2 and 3 provide a comparison of healthy untreated rats with untreated Type II ZDF/GMI diabetic rats and Type II ZDF/GMI diabetic rats treated with doxycycline and CMT-8.

| Structure (SMILES) | peak serum concentration [1] [µg/mL] | percentage of Type II ZDF/GMI diabetic rats that developed cataracts [2] | cataract development in photographs compared with non-diabetic control rats (in words) ([2]; FIGS. 2 and 3, treated Type II ZDF/GMI diabetic rats) | reduction of the incidence of cataract development ([2]; Type II diabetic rats, at five months) [%] | prevention of cataract development (in words) ([2]; ZDF/Gmi-fa Type II diabetic rats, at five months) |
| --- | --- | --- | --- | --- | --- |
| NC(=O)C1=C(O)C[C@@H]2C[C@@H]3Cc4cccc(O)c4C(=O)C3=C(O)[C@]2(O)C1=O [CMT-3, 6-demethyl-6-deoxy-4-dedimethylaminotetracycline] | 4.6 | approximately 70% |  |  |  |
| CC1c2cccc(O)c2C(O)=C2C(=O)C3(O)C(O)=C(C(N)=O)C(=O)CC3C(O)C21 (stereo not drawn) [CMT-8, 5-hydroxy-6-α-deoxy-4-dedimethylaminotetracycline] | 15 | approximately 42% | Cataracts do not appear to have developed | 37 | appeared to prevent the development of these cataracts |
| C[C@H]1c2cccc(O)c2C(=O)C2=C(O)[C@]3(O)C(=O)C(C(N)=O)=C(O)[C@@H](N(C)C)[C@@H]3[C@@H](O)[C@@H]21 [doxycycline, reference compound] | 0.9 | approximately 60% |  |  |  |
